Literature values as cited in patent publication US7977378B1, “Compositions and methods for enhancing weight-loss by cyclical administration of compounds” (priority 2007, dated 2011).

Tests used:
[1] = test system: 3T3-L1 preadipocytes
[2] = test system: contractile effect of noradrenaline; conditions: 2×10(−6) and 1×10(−7) M
[3] = test system: bovine adrenal medulla
[4] = test system: guinea-pig isolated right atria
[5] = test system: endothelium-intact rat aorta; conditions: equal potency
[6] = up to 200 mg kg-1
[7] = test system: adipocyte; conditions: in vitro
[8] = test system: contractile responses evoked by phenylephrine and high K+; conditions: 4 approximately 12 microg/mL
[9] = test system: hepatic glucose-6-phosphatase
[10] = test system: hepatic TG; conditions: 60 mg/kg·day

O=C(O)/C=C/c1cccc(O)c1 [m-coumaric acid]
Effect on cell cycle [1]: cell cycle arrest in the G1 phase

Cn1c(=O)c2c(ncn2C)n(C)c1=O [caffeine]
Increase of energy expenditure (after ingestion): 13%
Increase of oxidative FFA disposal (after ingestion): 44%
Share of lipids oxidized (after ingestion): 24%
Share of lipids recycled (after ingestion): 76%
Oxidative FFA disposal (after ingestion (from 236+/−21)): 340+/−16 micro mol/min
Non-oxidative FFA disposal (after ingestion (from 455+/−66)): 1054+/−242 micro mol/min
Increase of non-oxidative FFA disposal (after ingestion, P<0.01): 2.3 fold
Increase of lipid turnover (steady state (last hour of the test) after ingestion, P<0.005): 2 fold

O=C(O)/C=C/c1ccccc1O [o-coumaric acid]
Effect on cell cycle [1]: cell cycle arrest in the G1 phase

O=C1C[C@@H](c2ccc(O)cc2)Oc2cc(O)cc(O)c21 [naringenin]
Contractile effect of noradrenaline [2]: increased

evodiamine
Catecholamine secretion [3]: stimulate
Insensitivity of the cells to acetylcholine or high K+ stimulation [3]: reversed insensitivity
Inotropic and chronotropic effects [4]: positive inotropic and chronotropic effects
Vasodilatory effect [5]: vasodilatory effect

COc1ccc([C@@H]2CC(=O)c3c(O)cc(O)cc3O2)cc1O [hesperitin]
Effect on intestinal transit [6]: no effect

C=CCSSC=CC[S+]([O-])CC=C (mixture of isomers) [ajoene]
Adipocyte apoptosis [7]: induced

TNF-alpha
Adipocyte apoptosis [7]: induced

catechin
Effect on intestinal transit [6]: no effect

(−)-epigallocatechin gallate [EGCG]
Adipocyte apoptosis [7]: induced
Effect on contractile responses evoked by phenylephrine and high K+ [8]: did not affect

C[n+]1c2n(c(=O)c3ccccc31)CCc1c-2[nH]c2ccccc12 [dehydroevodiamine]
Vasodilatory effect [5]: vasodilatory effect

O=C(/C=C/c1ccc(O)c(O)c1)O[C@@H]1C[C@](O)(C(=O)O)C[C@@H](O)[C@H]1O [chlorogenic acid]
Inhibition of hepatic glucose-6-phosphatase [9]: selectively inhibit
Level of hepatic TG [10]: significantly reduced
Effect on cell cycle [1]: cell cycle arrest in the G1 phase
